Measurements taken from patent US8501713B2, “Drug combinations for the treatment of duchenne muscular dystrophy” (Summit Corporation PLC, priority 2007, dated 2013).

Assays:
skeletal muscle cells = experiment: Myotube formation and muscle protein expression in primary cultures of skeletal muscle cells; type: cell-based, mice
Procedure: GTE and EGCG also display unexpected pro myogenic properties. Primary cultures of skeletal muscle cells were established from both normal and dystrophic mice and treated with GTE and EGCG for 1-7 days. […] The amount of myotubes reached similar level with both agents compared to control thereafter. Western-blot analysis was performed on myotube cultures treated for 7 days.

mdx hearts = settings: Khairallah et al. (2008); cited from earlier work

O=C(O[C@@H]1Cc2c(O)cc(O)cc2O[C@@H]1c1cc(O)c(O)c(O)c1)c1cc(O)c(O)c(O)c1 [EGCG, epigallocatechin gallate]
expression of muscle-specific proteins (dystrophin, sarcomeric alpha actinin, MyHC) (skeletal muscle cells; myotube cultures treated for 7 days, Western blot): promoted the expression of several muscle-specific proteins | rate of formation of myotubes (skeletal muscle cells; primary skeletal muscle cell cultures from normal and dystrophic mice, within first 2-4 days, MyHC staining): concentration-dependently stimulated the rate of formation of myotubes

CCCc1nn(C)c2c(=O)[nH]c(-c3cc(S(=O)(=O)N4CCN(C)CC4)ccc3OCC)nc12 [sildenafil]
myocardial contractile performance (mdx hearts): prevents deterioration of myocardial contractile performance
